{
  "source": "BindingDB's records for patent US20250108123",
  "about": "(Jacobio Pharmaceuticals, 2025)",
  "biological_target": "Stimulator of interferon genes protein (Homo sapiens, UniProt Q86WV6)",
  "sequence (Q86WV6 whole entry)": "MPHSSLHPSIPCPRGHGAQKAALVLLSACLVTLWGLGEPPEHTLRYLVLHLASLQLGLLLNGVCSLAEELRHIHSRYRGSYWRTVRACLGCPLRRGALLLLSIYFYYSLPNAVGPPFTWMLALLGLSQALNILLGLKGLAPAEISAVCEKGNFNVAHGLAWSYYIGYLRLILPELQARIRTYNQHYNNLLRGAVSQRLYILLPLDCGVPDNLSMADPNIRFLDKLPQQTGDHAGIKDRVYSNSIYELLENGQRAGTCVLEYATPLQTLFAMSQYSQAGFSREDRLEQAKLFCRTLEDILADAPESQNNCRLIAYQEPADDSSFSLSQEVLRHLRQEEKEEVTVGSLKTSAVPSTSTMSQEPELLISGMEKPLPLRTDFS",
  "experiment": "Human STING WT Binding Assay",
  "method": "Cisbio Bioassays' human STING WT binding assay (#64BDSTGPEG & 64BDSTGPEH, Cisbio) is for quantitative measurement of human STING WT ligand using HTRF technology.1. Adding CompoundsNegative control: Dispense 5 μL of diluent into each negative control well. Standard: Dispense 5 μL of each Human STING WT Standard 2′3′-cGAMP (Std 0-Std 7) into each standard well. Compound: Dispense 5 μL of compound into each compound well.2. Adding ProteinsNegative control: Add 5 μL of detection buffer to all wells. Other wells: Add 5 μL of human STING WT protein 6His-tagged protein to all wells.3. Adding AntibodiesAdd 10 μL of premixed STING WT ligand d2 reagent and 6His Tb antibody working solution to all wells.4. RT IncubationSeal the plate and incubate 3 hours at RT or at Over Night if necessary.5. Reading PlateRemove the plate sealer and read on an HTRF compatible reader (PerkinElmer, USA). Results were analyzed with a two-wavelength signal ratio: intensity (665 nm)/intensity (620 nm).6.",
  "data": [
    {"smiles": "COC1C=C2CN(C(=O)CCC(=O)O)CC2=CC1OCCCOC1C=C2CN(C(=O)CCC(=O)O)CC2=CC1OC", "note": "(stereo unspecified) [US20250108123, Example I-1]", "values": [
      {"measurement": "IC50", "result": "< 0.1", "unit": "nM"}
    ]}
  ]
}
